Measured values taken from US10065956B2, “Ethynyl derivatives” (Hoffmann-La Roche Inc., priority 2015, dated 2018).

Target: T1, human mGlu4 receptor (Homo sapiens, UniProt Q14833)
T1 construct: expressed in transfected cells; host or cells: monoclonal HEK-293 cell line, stably transfected
Experiment: Ca2+ mobilization in vitro assay on recombinant human mGlu4 expressed in HEK293 cells (PAM, L-AP4 at EC20)
Type: cell-based
Details: for Emax: HEK293, maximal response in % of the maximal stimulatory effect obtained with saturating concentrations of L-AP4, read-out: Eff. (%); for EC50: HEK293 cells expressing human mGlu4, L-AP4 added at EC20
Text: FIG. 1: Illustration of the experimental outline for mGlu4 PAM Ca2+ mobilization screening assay and the determination of EC50 and % Emax values.
Determination of EC50 Values Using a Ca2+ Mobilization In Vitro Assay on Recombinant Human mGlu4 Expressed in HEK293 Cells:
A monoclonal HEK-293 cell line stably transfected with a cDNA encoding for the human mGlu4 receptor was generated; for the work with mGlu4 Positive Allosteric Modulators (PAMs), a cell line with low receptor expression levels and low constitutive receptor activity was selected to allow the differentiation of agonistic versus PAM activity. Cells were cultured according to standard protocols (Freshney, 2000) in Dulbecco's Modified Eagle Medium with high glucose supplemented with 1 mM glutamine, 10% (vol/vol) heat-inactivated bovine calf serum, Penicillin/Streptomycin, 50 μg/ml hygromycin and 15 μg/ml blasticidin (all cell culture reagents and antibiotics from Invitrogen, Basel, Switzerland).
About 24 hrs before an experiment, 5×10^4 cells/well were seeded in poly-D-lysine coated, black/clear-bottomed 96-well plates. The cells were loaded with 2.5 μM Fluo-4AM in loading buffer (1×HBSS, 20 mM HEPES) for 1 hr at 37° C. and washed five times with loading buffer. The cells were transferred into a Functional Drug Screening System 7000 (Hamamatsu, Paris, France), and 11 half logarithmic serial dilutions of test compound at 37° C. were added and the cells were incubated for 10-30 min. with on-line recording of fluorescence. Following this pre-incubation step, the agonist (2S)-2-amino-4-phosphonobutanoic acid (L-AP4) was added to the cells at a concentration corresponding to EC20 with on-line recording of fluorescence; in order to account for day-to-day variations in the responsiveness of cells, the EC20 of L-AP4 was determined immediately ahead of each experiment by recording of a full dose-response curve of L-AP4. Responses were measured as peak increase in fluorescence minus basal (i.e. fluorescence without addition of L-AP4), normalized to the maximal stimulatory effect obtained with saturating concentrations of L-AP4. Graphs were plotted with the % maximal stimulatory using XLfit, a curve fitting program that iteratively plots the data using Levenburg Marquardt algorithm. The single site competition analysis equation used was y=A+((B−A)/(1+((x/C)D))), where y is the % maximal stimulatory effect, A is the minimum y, B is the maximum y, C is the EC50, x is the log 10 of the concentration of the competing compound and D is the slope of the curve (the Hill Coefficient). From these curves the EC50 (drug concentration at which 50% of the maximal receptor activation was achieved), the Hill coefficient as well as the maximal response in % of the maximal stimulatory effect obtained with saturating concentrations of L-AP4 were calculated (see FIG. 1). […] A depression of the signal observed after addition of the EC20 concentration of L-AP4 was indicative of an inhibitory activity of the test compound.

T1 sequence (Q14833 33-912): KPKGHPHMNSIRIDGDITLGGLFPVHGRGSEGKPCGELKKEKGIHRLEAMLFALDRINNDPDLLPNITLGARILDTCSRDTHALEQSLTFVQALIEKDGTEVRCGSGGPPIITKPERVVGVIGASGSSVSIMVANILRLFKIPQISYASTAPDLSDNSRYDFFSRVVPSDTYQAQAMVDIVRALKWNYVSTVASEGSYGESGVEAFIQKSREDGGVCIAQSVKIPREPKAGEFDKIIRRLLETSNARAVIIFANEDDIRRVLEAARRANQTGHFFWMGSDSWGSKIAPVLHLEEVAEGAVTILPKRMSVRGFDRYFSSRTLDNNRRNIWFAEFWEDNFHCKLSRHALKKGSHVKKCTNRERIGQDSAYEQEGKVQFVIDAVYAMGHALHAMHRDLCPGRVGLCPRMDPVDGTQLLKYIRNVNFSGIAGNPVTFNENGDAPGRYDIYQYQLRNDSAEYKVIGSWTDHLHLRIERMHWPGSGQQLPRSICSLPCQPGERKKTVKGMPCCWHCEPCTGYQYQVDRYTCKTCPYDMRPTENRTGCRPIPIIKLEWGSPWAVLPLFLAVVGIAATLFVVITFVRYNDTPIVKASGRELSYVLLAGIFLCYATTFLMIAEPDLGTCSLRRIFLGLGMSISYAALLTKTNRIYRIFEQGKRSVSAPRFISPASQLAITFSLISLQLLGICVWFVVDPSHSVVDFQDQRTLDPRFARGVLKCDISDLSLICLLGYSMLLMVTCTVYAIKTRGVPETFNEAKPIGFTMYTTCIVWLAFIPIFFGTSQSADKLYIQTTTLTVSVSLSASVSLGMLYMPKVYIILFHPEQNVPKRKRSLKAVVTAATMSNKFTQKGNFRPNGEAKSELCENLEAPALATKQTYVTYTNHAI

Structure (SMILES)	Emax [%]	EC50 [nM]
CN1C(=O)N(c2c(F)cc(C#Cc3ccccc3)cc2F)C(=O)C[C@@]1(C)c1cnn2ccccc12 [Example 14, (6S)-3-[2,6-Difluoro-4-(2-phenylethynyl)phenyl]-1,6-dimethyl-6-pyrazolo[1,5-a]pyridin-3-yl-hexahydropyrimidine-2,4-dione]	137	93
COCCn1cc([C@]2(C)CC(=O)N(c3c(F)cc(C#Cc4ccccc4)cc3F)C(=O)N2C)cn1 [Example 20, (6S)-3-[2,6-Difluoro-4-(2-phenylethynyl)phenyl]-6-[1-(2-methoxyethyl)pyrazol-4-yl]-1,6-dimethyl-hexahydropyrimidine-2,4-dione]	137	54
COCCCn1cc([C@]2(C)CC(=O)N(c3c(F)cc(C#Cc4ccccc4)cc3F)C(=O)N2C)cn1 [Example 21, (6S)-3-[2,6-Difluoro-4-(2-phenylethynyl)phenyl]-6-[1-(3-methoxypropyl)pyrazol-4-yl]-1,6-dimethyl-hexahydropyrimidine-2,4-dione]	136	70
CCn1ccc([C@]2(C)CC(=O)N(c3c(F)cc(C#Cc4ccccc4)cc3F)C(=O)N2C)n1 [Example 28, (6S)-3-[2,6-Difluoro-4-(2-phenylethynyl)phenyl]-6-(1-ethylpyrazol-3-yl)-1,6-dimethyl-hexahydropyrimidine-2,4-dione]	139	96
CN1C(=O)N(c2c(F)cc(C#Cc3ccccc3)cc2F)C(=O)C[C@@]1(C)c1cnsc1 [Example 15, (6S)-3-[2,6-Difluoro-4-(2-phenylethynyl)phenyl]-6-isothiazol-4-yl-1,6-dimethyl-hexahydropyrimidine-2,4-dione]	167	38
Cn1cc([C@]2(C)CC(=O)N(c3c(F)cc(C#Cc4ccccc4)cc3F)C(=O)N2)cn1 [Example 5, (6S)-3-[2,6-Difluoro-4-(2-phenylethynyl)phenyl]-6-methyl-6-(1-methylpyrazol-4-yl)hexahydropyrimidine-2,4-dione]	103	110
CC[C@@]1(c2cn[nH]c2)CC(=O)N(c2c(F)cc(C#Cc3ccccc3)cc2F)C(=O)N1C [Example 45, (6S)-3-[2,6-Difluoro-4-(2-phenylethynyl)phenyl]-6-ethyl-1-methyl-6-(1H-pyrazol-4-yl)hexahydropyrimidine-2,4-dione]	126	39
CN1C(=O)N(c2c(F)cc(C#Cc3ccc(F)cc3)cc2F)C(=O)C[C@@]1(C)c1cn[nH]c1 [Example 54, (6S)-3-[2,6-Difluoro-4-[2-(4-fluorophenyl)ethynyl]phenyl]-1,6-dimethyl-6-(1H-pyrazol-4-yl)hexahydropyrimidine-2,4-dione]	135	27

Further compounds by falling EC50, results first:

Emax [%]	EC50 [nM]	Structure (SMILES)
147	108	CN1C(=O)N(c2c(F)cc(C#Cc3ccccc3)cc2F)C(=O)C[C@@]1(C)c1cnn(CCO)c1 [Example 23, (6S)-3-[2,6-Difluoro-4-(2-phenylethynyl)phenyl]-6-[1-(2-hydroxyethyl)pyrazol-4-yl]-1,6-dimethyl-hexahydropyrimidine-2,4-dione]
149	45	CN1C(=O)N(c2c(F)cc(C#Cc3cnsc3)cc2F)C(=O)C[C@@]1(C)c1cnn(C)c1 [Example 25, (6S)-3-[2,6-Difluoro-4-(2-isothiazol-4-ylethynyl)phenyl]-1,6-dimethyl-6-(1-methylpyrazol-4-yl)hexahydropyrimidine-2,4-dione]
98	36	CN1C(=O)N(c2c(F)cc(C#Cc3ccccc3)cc2F)C(=O)C[C@@]1(C)c1cnn(C)c1 [Example 6, (6S)-3-[2,6-Difluoro-4-(2-phenylethynyl)phenyl]-1,6-dimethyl-6-(1-methylpyrazol-4-yl)hexahydropyrimidine-2,4-dione]
139	36	CC(C)n1cc([C@]2(C)CC(=O)N(c3c(F)cc(C#Cc4ccccc4)cc3F)C(=O)N2C)cn1 [Example 19, (6S)-3-[2,6-Difluoro-4-(2-phenylethynyl)phenyl]-6-(1-isopropylpyrazol-4-yl)-1,6-dimethyl-hexahydropyrimidine-2,4-dione]
